Structures can show the parent of a compound that is named as a salt.
Tests used:
Hydrolysis in water = format: physicochemical
Unstable Detrusor [1] = test: Isometric test: maximum isometric pressure as a function of bladder volume, unstable detrusor; format: in vivo, women; details: for I (100): maximum isometric pressure: bladder urine volume 100 ml; for I (200): maximum isometric pressure: bladder urine volume 200 ml; for I (300): maximum isometric pressure: bladder urine volume 300 ml
Procedure: (§1) Urodynamic studies were performed on 20 women having a mean age of 28 + 7 years. These studies incorporated water cystometrogram, UPP, and isometric tests. Control urodynamic testing without use of thiphenamil hydrochloride was undertaken in all subjects. The effects of a single dose of 400 mg and a single dose of 800 mg of thiphenamil hydrochloride given orally were compared with the control value for each subject. Specifically, the measurements taken included bladder capacity, residual volume, maximum detrusor voiding pressure, and isometric contractility during bladder filling and at bladder capacity. '

Stable Detrusor [2] = test: Urodynamic studies, filling and voiding phase of the bladder (water cystometrogram), stable detrusor; format: in vivo, women; details: for Compliance (compliance of the detrusor muscle) / P (maxflow): bladder pressure at maximum urine flow rate / P (opening): bladder pressure at the patient's initiating urination / P (voiding): bladder voiding pressure / Q (max) / R.U. / V (1st sense): bladder urine volume at the patient's first sensation to urinate / V (Urge): bladder urine volume at the patient's urge to urinate / V (max): maximum bladder urine volume: stable detrusor
Procedure: as §1
(§2) Referring to Figure 1, data is shown taken from a subject having normal detrusor activity. The parameters measured include isometric detrusor pressure during bladder filling and while voiding under control conditions, EMG and . urine flow rate. Typical segments of a polygraph recording were obtained at a bladder volume of 100 ml (segment A), 200 ml (segment B) and the voiding at 30C ml (segment C). The parameters shown are detrusor pressure in cm H20, EMG (electromyogram) recording showing muscle electrical activity and urine flow rate.

Unstable Detrusor [3] = test: Urodynamic studies, filling and voiding phase of the bladder (water cystometrogram), unstable detrusor; format: in vivo, women; details: for Compliance (compliance of the detrusor muscle) / P (maxflow): bladder pressure at maximum urine flow rate / P (opening): bladder pressure at the patient's initiating urination / P (voiding): bladder voiding pressure / Q (max) / R.U. / V (1st sense): bladder urine volume at the patient's first sensation to urinate / V (Urge): bladder urine volume at the patient's urge to urinate / V (max): maximum bladder urine volume: unstable detrusor
Procedure: as §1
Figure 3 illustrates the voiding phase of the cystometrogram for a subject having an unstable detrusor muscle. Spontaneous detrusor contractions are shown to precipitate voiding at a bladder urine volume of about 210 ml. The onset of voiding is associated with involuntary contractions (series of detrusor pressure peaks between 0 and 50 seconds) that are suppressed by increased EMG activity.

Stable Detrusor [4] = test: Isometric test: maximum isometric pressure as a function of bladder volume, stable detrusor; format: in vivo, women; details: for I (100): maximum bladder isometric pressure / I (200): maximum bladder isometric pressure / I (300): maximum bladder isometric pressure / I (400): maximum bladder isometric pressure / I (500): maximum bladder isometric pressure / V (1st sense): bladder urine volume at the patient's first sensation to urinate / V (Max): maximum bladder urine volume / V (Urge): bladder urine volume at the patient's urge to urinate: stable detrusor; for I (100): maximum bladder isometric pressure: bladder urine volume 100 ml; for I (200): maximum bladder isometric pressure: bladder urine volume 200 ml; for I (300): maximum bladder isometric pressure: bladder urine volume 300 ml; for I (400): maximum bladder isometric pressure: bladder urine volume 400 ml; for I (500): maximum bladder isometric pressure: bladder urine volume 500 ml; for V (1st sense): bladder urine volume at the patient's first sensation to urinate / V (Max): maximum bladder urine volume / V (Urge): bladder urine volume at the patient's urge to urinate: isometric test
Procedure: as §1, §2

[5] = isometric test, single oral dose 400 mg
[6] = one subject with unstable detrusor, 400 mg dose 30 minutes prior to recording

stability in water (hydrolysis) (Hydrolysis in water): slowly hydrolizes in water
Compound: CCN(CC)CCSC(=O)C(c1ccccc1)c1ccccc1 [Thiphenamil Hydrochloride, thiphenamil hydrochloride]
I (100): maximum isometric pressure (Unstable Detrusor [1]; single oral dose 400 mg): 73±39 (14) cm H2O
I (100): maximum isometric pressure (Unstable Detrusor [1]; single oral dose 800 mg): 78±53 cm H2O
I (200): maximum isometric pressure (Unstable Detrusor [1]; single oral dose 400 mg): 44±14 (3) cm H2O
I (200): maximum isometric pressure (Unstable Detrusor [1]; single oral dose 800 mg): 62±57 cm H2O
I (300): maximum isometric pressure (Unstable Detrusor [1]; single oral dose 400 mg): 75±5 (2) cm H2O
I (300): maximum isometric pressure (Unstable Detrusor [1]; single oral dose 800 mg): 96 (1) cm H2O
V (1st sense): bladder urine volume at the patient's first sensation to urinate (Unstable Detrusor [1]; [5]): 270+99 (4) ml
V (Urge): bladder urine volume at the patient's urge to urinate (Unstable Detrusor [1]; [5]): 355±53 (4) ml
V (Urge): bladder urine volume at the patient's urge to urinate (Unstable Detrusor [1]; isometric test, single oral dose 800 mg): 423 ± 27.5 mL
detrusor muscle contractility (Stable Detrusor [2]; decrease from control 41.3 + 15.3, dose not stated in the sentence (matches P (voiding), 400 mg, Table 1)): 37.2 + 16.0 cm H20
Compliance (compliance of the detrusor muscle) (Stable Detrusor [2]; single oral dose 400 mg): 0.002±0.001 liters/cm H2O
P (maxflow): bladder pressure at maximum urine flow rate (Stable Detrusor [2]; single oral dose 400 mg): 37.9±9.1 (19) cm H2O
P (opening): bladder pressure at the patient's initiating urination (Stable Detrusor [2]; single oral dose 400 mg): 25.4±13.3 (19) cm H2O
P (voiding): bladder voiding pressure (Stable Detrusor [2]; single oral dose 400 mg): 37.2±16 (20) cm H2O
Q (max) (Stable Detrusor [2]; single oral dose 400 mg): 16.7±4.4 (21)
R.U. (Stable Detrusor [2]; single oral dose 400 mg): 132.3±121.4 (18)
V (1st sense): bladder urine volume at the patient's first sensation to urinate (Stable Detrusor [2]; single oral dose 400 mg): 314±99 (19) ml
V (Urge): bladder urine volume at the patient's urge to urinate (Stable Detrusor [2]; single oral dose 400 mg): 551±195 (19) ml
V (max): maximum bladder urine volume (Stable Detrusor [2]; single oral dose 400 mg): 581+155 (19) ml
Compliance (compliance of the detrusor muscle) (Stable Detrusor [2]; single oral dose 800 mg): 0.0025±0.003 liters/cm H2O
P (maxflow): bladder pressure at maximum urine flow rate (Stable Detrusor [2]; single oral dose 800 mg): 49.5±14.8 (11) cm H2O
P (opening): bladder pressure at the patient's initiating urination (Stable Detrusor [2]; single oral dose 800 mg): 39.1±12.2 (7) cm H2O
P (voiding): bladder voiding pressure (Stable Detrusor [2]; single oral dose 800 mg): 65.1±19.1 (11) cm H2O
Q (max) (Stable Detrusor [2]; single oral dose 800 mg): 27.7±9.0 (8)
R.U. (Stable Detrusor [2]; single oral dose 800 mg): 95.0±72.2 (9)
V (1st sense): bladder urine volume at the patient's first sensation to urinate (Stable Detrusor [2]; single oral dose 800 mg): 298±67.6 (11) ml
V (Urge): bladder urine volume at the patient's urge to urinate (Stable Detrusor [2]; single oral dose 800 mg): 381±61 (11) ml
V (max): maximum bladder urine volume (Stable Detrusor [2]; single oral dose 800 mg): 436±165 (11) ml
bladder capacity (Stable Detrusor [2]; versus control): no significant increase
detrusor instability (range of fluctuations of the EMG tracing, Figure 4) (Unstable Detrusor [3]; [6]): nearly eliminated
height of the detrusor pressure peaks before voiding, Figure 4 versus Figure 3 (Unstable Detrusor [3]; [6]): general decrease in the height of those peaks
pattern of detrusor instability (series of increasing detrusor pressure peaks leading up to voiding), Figure 4 versus Figure 3 (Unstable Detrusor [3]; [6]): shifted significantly to the right
voiding (Figure 4) (Unstable Detrusor [3]; [6]): voluntary and complete
Compliance (compliance of the detrusor muscle) (Unstable Detrusor [3]; single oral dose 400 mg): 0.002±0.001 liters/cm H2O
P (maxflow): bladder pressure at maximum urine flow rate (Unstable Detrusor [3]; single oral dose 400 mg): 44.0±4.4 (3) cm H2O
P (opening): bladder pressure at the patient's initiating urination (Unstable Detrusor [3]; single oral dose 400 mg): 30±12 (4) cm H2O
P (voiding): bladder voiding pressure (Unstable Detrusor [3]; single oral dose 400 mg): 47±7 (4) cm H2O
Q (max) (Unstable Detrusor [3]; single oral dose 400 mg): 15±1.9
R.U. (Unstable Detrusor [3]; single oral dose 400 mg): 140±85 (2)
V (1st sense): bladder urine volume at the patient's first sensation to urinate (Unstable Detrusor [3]; single oral dose 400 mg): 270±99 (3) ml
V (Urge): bladder urine volume at the patient's urge to urinate (Unstable Detrusor [3]; single oral dose 400 mg): 345 ± 191 mL
V (max): maximum bladder urine volume (Unstable Detrusor [3]; single oral dose 400 mg): 440±57 (2) ml
Compliance (compliance of the detrusor muscle) (Unstable Detrusor [3]; single oral dose 800 mg): 0.0027±0.0004 liters/cm H2O
P (maxflow): bladder pressure at maximum urine flow rate (Unstable Detrusor [3]; single oral dose 800 mg): 55.3±7.0 (3) cm H2O
P (opening): bladder pressure at the patient's initiating urination (Unstable Detrusor [3]; single oral dose 800 mg): 44±11.3 (2) cm H2O
P (voiding): bladder voiding pressure (Unstable Detrusor [3]; single oral dose 800 mg): 52.7±6.4 (3) cm H2O
Q (max) (Unstable Detrusor [3]; single oral dose 800 mg): 18.0±1.8 (3)
R.U. (Unstable Detrusor [3]; single oral dose 800 mg): 27.5±3.5 (3)
V (1st sense): bladder urine volume at the patient's first sensation to urinate (Unstable Detrusor [3]; single oral dose 800 mg): 275±35 (3) ml
V (Urge): bladder urine volume at the patient's urge to urinate (Unstable Detrusor [3]; single oral dose 800 mg): 325±35 (2) ml
V (max): maximum bladder urine volume (Unstable Detrusor [3]; single oral dose 800 mg): 499±177 (3) ml
detrusor pressures in segments A and B (Figure 2 versus Figure 1) (Stable Detrusor [4]; one subject with normal detrusor, 400 mg dose, bladder volume 100 ml and 200 ml): considerably higher
isometric detrusor pressure during the filling phase of the bladder (Stable Detrusor [4]; significant increase from control 36.1 + 26.9, dose not stated in the sentence (matches I (100), 400 mg, Table II)): 63.0 + 27.1 cm 1120
I (100): maximum bladder isometric pressure (Stable Detrusor [4]; single oral dose 400 mg): 63.0±27.1 (13) cm H2O
I (100): maximum bladder isometric pressure (Stable Detrusor [4]; single oral dose 800 mg): 74±34.6 (6) cm H2O
I (200): maximum bladder isometric pressure (Stable Detrusor [4]; single oral dose 400 mg): 51.9±26.0 (14) cm H2O
I (200): maximum bladder isometric pressure (Stable Detrusor [4]; single oral dose 800 mg): 65.0±37.8 (7) cm H2O
I (300): maximum bladder isometric pressure (Stable Detrusor [4]; single oral dose 400 mg): 50.3±25.8 (12) cm H2O
I (300): maximum bladder isometric pressure (Stable Detrusor [4]; single oral dose 800 mg): 63.4±26.2 (7) cm H2O
I (400): maximum bladder isometric pressure (Stable Detrusor [4]; single oral dose 400 mg): 46.6±19.5 (10) cm H2O
I (400): maximum bladder isometric pressure (Stable Detrusor [4]; single oral dose 800 mg): 50.0±27.5 (6) cm H2O
I (500): maximum bladder isometric pressure (Stable Detrusor [4]; single oral dose 400 mg): 30.1±15.6 (8) cm H2O
I (500): maximum bladder isometric pressure (Stable Detrusor [4]; single oral dose 800 mg): 34.0±14.4 (2) cm H2O
V (1st sense): bladder urine volume at the patient's first sensation to urinate (Stable Detrusor [4]; single oral dose 400 mg): 358±106 (18) ml
V (Max): maximum bladder urine volume (Stable Detrusor [4]; single oral dose 400 mg): 544±151 (11) ml
V (Urge): bladder urine volume at the patient's urge to urinate (Stable Detrusor [4]; single oral dose 400 mg): 467±94 (18) ml
V (1st sense): bladder urine volume at the patient's first sensation to urinate (Stable Detrusor [4]; single oral dose 800 mg): 253.3±96.9 (6) ml
V (Max): maximum bladder urine volume (Stable Detrusor [4]; single oral dose 800 mg): 425±82 (10) ml
V (Urge): bladder urine volume at the patient's urge to urinate (Stable Detrusor [4]; single oral dose 800 mg): 385±74.6 (7) ml

From EP0125508A1, “Method for stabilizing a detrusor muscle while increasing detrusor muscle strength” (United Pharmaceuticals, Inc., priority 1983, dated 1984)
